Columns and labels:
[1] = target: Sodium-dependent serotonin transporter (Rattus norvegicus, UniProt P31652); assay: Displacement of [3H]paroxetine from SERT in brain membranes; type: cell membranes, Membrane
[2] = target: Norepinephrine transporter (Rattus norvegicus, UniProt Q9WTR4); assay: Displacement of [3H]nisoxetine from NET in rat brain membranes; type: cell membranes
[3] = target: Sodium-dependent dopamine transporter (Rattus norvegicus, UniProt P23977); assay: Displacement of [3H]GBR from DAT in rat brain membranes; type: cell membranes
Brain = assay: Drug uptake in olive baboon brain at 7.89 mCi after 10 mins; type: ADME, tissue-based; conditions: papio anubis, in vivo
[4] = Lipophilicity, log D at pH 7.4; type: physicochemical; conditions: buffer
[5] = target: Sodium-dependent serotonin transporter (Rattus norvegicus) (UniProt P31652); assay: Inhibition of SERT in rat brain membrane at 10 uM; type: cell membranes
Chain of Sodium-dependent serotonin transporter (Rattus norvegicus) (P31652 whole entry): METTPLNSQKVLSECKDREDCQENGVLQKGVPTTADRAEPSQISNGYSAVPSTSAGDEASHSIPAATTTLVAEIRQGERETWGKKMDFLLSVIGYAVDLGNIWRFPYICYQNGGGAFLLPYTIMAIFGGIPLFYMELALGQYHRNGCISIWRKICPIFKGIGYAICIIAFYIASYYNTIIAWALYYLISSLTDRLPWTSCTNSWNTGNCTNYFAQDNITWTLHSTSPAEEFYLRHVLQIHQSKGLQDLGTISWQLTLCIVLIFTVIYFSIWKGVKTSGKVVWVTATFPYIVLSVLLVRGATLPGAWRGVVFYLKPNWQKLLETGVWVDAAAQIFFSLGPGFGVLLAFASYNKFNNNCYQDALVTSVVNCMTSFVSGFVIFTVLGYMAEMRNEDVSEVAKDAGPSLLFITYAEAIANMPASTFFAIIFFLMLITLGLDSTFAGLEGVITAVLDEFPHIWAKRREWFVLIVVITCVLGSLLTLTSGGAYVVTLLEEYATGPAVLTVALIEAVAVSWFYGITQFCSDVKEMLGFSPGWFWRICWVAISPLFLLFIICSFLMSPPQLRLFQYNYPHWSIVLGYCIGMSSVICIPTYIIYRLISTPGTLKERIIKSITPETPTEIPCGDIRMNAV

Chain of Norepinephrine transporter (Q9WTR4 whole entry): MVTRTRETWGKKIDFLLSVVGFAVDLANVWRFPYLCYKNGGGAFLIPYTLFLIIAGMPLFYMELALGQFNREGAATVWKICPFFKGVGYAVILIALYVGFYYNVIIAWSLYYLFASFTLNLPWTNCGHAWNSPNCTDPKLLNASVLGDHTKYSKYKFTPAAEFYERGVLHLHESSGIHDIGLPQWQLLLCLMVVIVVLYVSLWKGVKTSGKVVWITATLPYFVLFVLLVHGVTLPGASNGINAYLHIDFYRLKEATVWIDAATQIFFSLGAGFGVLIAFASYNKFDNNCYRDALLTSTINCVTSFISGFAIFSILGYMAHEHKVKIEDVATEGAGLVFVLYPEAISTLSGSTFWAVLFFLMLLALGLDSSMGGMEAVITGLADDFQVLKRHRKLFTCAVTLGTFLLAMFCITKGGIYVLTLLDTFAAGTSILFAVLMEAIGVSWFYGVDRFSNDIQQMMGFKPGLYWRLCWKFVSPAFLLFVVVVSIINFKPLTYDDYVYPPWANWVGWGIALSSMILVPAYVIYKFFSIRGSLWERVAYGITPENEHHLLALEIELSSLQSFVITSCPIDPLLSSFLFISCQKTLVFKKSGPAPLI
Chain of Sodium-dependent dopamine transporter (P23977 whole entry): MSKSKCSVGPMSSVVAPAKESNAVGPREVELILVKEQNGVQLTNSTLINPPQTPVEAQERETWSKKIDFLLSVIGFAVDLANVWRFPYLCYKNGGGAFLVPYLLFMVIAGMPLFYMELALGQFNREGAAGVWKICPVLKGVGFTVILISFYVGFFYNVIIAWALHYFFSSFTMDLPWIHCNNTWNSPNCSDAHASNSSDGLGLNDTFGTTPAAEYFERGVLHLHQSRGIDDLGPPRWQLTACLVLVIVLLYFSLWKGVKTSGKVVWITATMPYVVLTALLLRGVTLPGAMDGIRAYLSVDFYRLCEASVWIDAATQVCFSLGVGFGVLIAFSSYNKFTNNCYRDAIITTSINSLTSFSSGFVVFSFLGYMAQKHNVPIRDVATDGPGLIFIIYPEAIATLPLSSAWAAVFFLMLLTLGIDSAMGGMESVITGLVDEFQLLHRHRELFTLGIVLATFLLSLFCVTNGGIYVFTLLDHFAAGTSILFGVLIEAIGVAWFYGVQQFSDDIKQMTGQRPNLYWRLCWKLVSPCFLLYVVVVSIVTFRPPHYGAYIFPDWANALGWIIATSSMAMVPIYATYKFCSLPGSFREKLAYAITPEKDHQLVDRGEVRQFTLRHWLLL
Chain of Sodium-dependent serotonin transporter (P31652 whole entry): as the sequence (P31652 whole entry) above

SMILES | Ki [1] [nM] | Ki [2] [nM] | Ki [3] [nM] | Drug uptake (Brain) [%ID] | logD [4] | inhibition [5] [%]
COc1ccccc1COC(c1cccc(I)c1)C1CNCCO1 (racemic) | 351 | 73.8 | 716 | – | – | –
Cc1ccccc1OC(c1cccc(I)c1)C1CNCCO1 (racemic) | – | 27.6 | 740 | – | – | 24
O=[N+]([O-])c1ccccc1COC(c1cccc(I)c1)C1CNCCO1 (racemic) | 252 | 70.4 | 14.2 | – | – | –
COc1ccccc1OC(c1ccc(I)s1)C1CNCCO1 (racemic) | 141 | 79.6 | 210 | – | – | –
Cc1ccccc1OC(c1ccc(I)s1)C1CNCCO1 (racemic) | – | 71.9 | 186 | – | – | 31
FC(F)(F)c1ccccc1OC(c1cccc(I)c1)C1CNCCO1 (racemic) | 486 | 101 | 1870 | – | – | –
COc1ccccc1OC(c1cccc(I)c1)C1CNCCO1 (racemic) | – | 15.4 | > 10000 | – | – | 12
CCOc1ccccc1OC(c1cccc(I)c1)C1CNCCO1 (racemic) | – | 28.5 | 3140 | – | – | 44

Second part, the compound after the results:

Ki [1] [nM] | Ki [2] [nM] | Ki [3] [nM] | Drug uptake (Brain) [%ID] | logD [4] | inhibition [5] [%] | SMILES
40.4 | 0.84 | 228 | – | – | – | Ic1ccccc1O[C@@H](c1ccccc1)[C@@H]1CNCCO1
– | – | – | 1 | 2.6 | – | [125I]c1ccccc1O[C@@H](c1ccccc1)[C@@H]1CNCCO1
– | 2.47 | 410 | – | – | 40 | Ic1ccccc1OC(c1ccccc1)C1CNCCO1 (racemic)
